Columns and labels:
U937 cells = test: Caspase 3 apoptotic assay in U937 cells; type: cell-based, human; conditions: U937, 24 hrs
Protocol: (§1) FIG. 1: a) Cell cycle analysis of U937 cells treated for 30 hrs with the indicated compounds used at 1 and 5 μM; b) Caspase 3 apoptotic assay of the indicated compounds after 24 hrs of treatment in the U937 cells; c) Tubulin acetylation and p21 expression levels at 6 and 16 hrs after treatment with the indicated compounds; total tubulin expression levels are used for equal loading; d) Histone H3 acetylation and K9 H3 methylation expression levels at 6 and 16 hrs after treatment with the indicated compounds; total tubulin expression levels are used for equal loading; e) K9, K14, K18 histone H3 acetylation expression levels at 6 and 16 hrs after treatment with the indicated compounds; total ERKs expression levels are used for equal loading; f) HDAC1 enzymatic assay: IP-HDAC1 is incubated with the indicated inhibitors for 24 Hrs; activity is measured as ^3H-acetyl release; g) HDAC4 enzymatic assay: IP-HDAC4 is incubated with the indicated inhibitors for 24 hrs; activity is measured as ^3H-acetyl release.

DU-145 cells = test: MTT cytotoxicity assay, DU-145; conditions: read-out: IC50 values, MTT cytotoxicity assay; DU-145, 48 h
Protocol: Plates were kept in the humidified CO2 (5%) incubator overnight so that cells get attached to the bottom. […] Viable cells cleave the MTT tetrazolium ring into a dark blue formazan reaction product, whereas dead cells remain colorless. The MTT-containing medium was gently removed and DMSO was added in each well. After shaking, the plates were read in absorbance at 540 nm. All results are expressed as the average of three wells. Percent cytotoxicity was measured of each compound and represented in terms of its IC50 values.

HDAC6 = target: T1, HDAC6 (Homo sapiens, UniProt Q9UBN7); test: Alpha tubulin acetylation in U937 cells (HDAC6 readout); type: cell-based; conditions: U937, 6 and 16 hrs
T1 construct: Tubuline acetylation and p21 expression levels in U937 cells after 24 hrs with the indicated treatments; endogenous in cells; host or cells: U937
Protocol: as §1, with “release. […]” for “release.”

T1 sequence (Q9UBN7 whole entry): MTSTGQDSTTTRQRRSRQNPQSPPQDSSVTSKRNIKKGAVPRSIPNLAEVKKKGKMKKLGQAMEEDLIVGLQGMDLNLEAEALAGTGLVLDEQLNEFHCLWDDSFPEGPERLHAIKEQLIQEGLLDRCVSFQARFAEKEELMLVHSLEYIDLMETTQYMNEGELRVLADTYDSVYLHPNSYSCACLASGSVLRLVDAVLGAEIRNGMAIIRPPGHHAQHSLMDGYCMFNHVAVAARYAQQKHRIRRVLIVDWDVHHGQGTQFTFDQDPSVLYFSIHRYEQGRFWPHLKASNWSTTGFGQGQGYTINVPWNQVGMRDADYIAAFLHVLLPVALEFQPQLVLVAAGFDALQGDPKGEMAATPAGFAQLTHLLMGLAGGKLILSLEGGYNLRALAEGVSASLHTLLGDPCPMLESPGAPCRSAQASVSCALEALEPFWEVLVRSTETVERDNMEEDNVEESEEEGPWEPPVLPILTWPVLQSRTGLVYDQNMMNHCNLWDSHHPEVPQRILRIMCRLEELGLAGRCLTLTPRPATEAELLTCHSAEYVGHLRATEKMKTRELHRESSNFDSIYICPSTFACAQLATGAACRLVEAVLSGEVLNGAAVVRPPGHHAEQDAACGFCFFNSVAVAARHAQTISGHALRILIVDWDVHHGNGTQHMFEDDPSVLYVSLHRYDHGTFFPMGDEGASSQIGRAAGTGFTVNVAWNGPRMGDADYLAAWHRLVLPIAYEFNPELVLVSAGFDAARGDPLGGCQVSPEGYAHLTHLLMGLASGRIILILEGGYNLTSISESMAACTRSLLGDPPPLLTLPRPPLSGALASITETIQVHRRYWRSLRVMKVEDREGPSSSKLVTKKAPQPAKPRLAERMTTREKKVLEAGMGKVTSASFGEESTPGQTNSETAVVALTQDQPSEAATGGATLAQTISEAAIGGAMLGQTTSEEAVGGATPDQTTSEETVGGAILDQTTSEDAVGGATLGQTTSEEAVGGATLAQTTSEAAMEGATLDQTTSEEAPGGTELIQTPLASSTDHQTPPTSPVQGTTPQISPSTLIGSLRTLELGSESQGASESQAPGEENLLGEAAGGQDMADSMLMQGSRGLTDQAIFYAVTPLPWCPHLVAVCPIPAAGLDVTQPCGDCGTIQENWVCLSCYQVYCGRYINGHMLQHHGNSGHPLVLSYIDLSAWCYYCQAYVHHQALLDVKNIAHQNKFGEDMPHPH

O=C(NCCSSCCNC(=O)C(Cc1c[nH]c2ccc(Br)cc12)=NO)C(Cc1c[nH]c2ccc(Br)cc12)=NO [UVI5008]
apoptogenic effect (caspase 3) (U937 cells): strongest apoptogenic effect | IC50 (DU-145 cells): 2400 ± 300 nM | inhibition of HDAC6 (alpha tubulin acetylation) (HDAC6): inhibited the activity of HDAC6

Reference: patent publication US8338473B2, “Derivatives of psammaplin A, a method for their synthesis and their uses for the prevention or treatment of cancer” (Centre National de la Recherche Scientifique, priority 2007, dated 2012)
